From US20190135793A1, “HETEROCYCLIC INHIBITORS OF KDM5 FOR THE TREATMENT OF DISEASE” (Board of Regents, The University of Texas System, priority 2017, published 2019)
Where two headings read alike, the source gives them in different places.

Assays:
KDM5B = molecular target: T1, KDM5B (Homo sapiens, UniProt Q9UGL1); test: biochemical
T1 construct: Full length of KDM5B and KDM4C protein were purchased from Active Motif; purchased Active Motif 31832
Method in brief: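 KDM5B (0.5 nM final) was preincubated with compound for 15 min at room temperature, then reacted with biotinylated peptide (3 nM final) for 25 min at room temperature.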

KDM4C = molecular target: T2, KDM4C (Homo sapiens, UniProt Q9H3R0); test: KDM4C AlphaScreen assay; format: biochemical; settings: AlphaScreen; full length KDM4C 0.2 nM; biotinylated H3K9Me3 peptide 3 nM; 30 minutes at room temperature
T2 construct: Full length of KDM5B and KDM4C protein were purchased from Active Motif; purchased Active Motif 31858
T2 sequence (Q9H3R0 1-1056): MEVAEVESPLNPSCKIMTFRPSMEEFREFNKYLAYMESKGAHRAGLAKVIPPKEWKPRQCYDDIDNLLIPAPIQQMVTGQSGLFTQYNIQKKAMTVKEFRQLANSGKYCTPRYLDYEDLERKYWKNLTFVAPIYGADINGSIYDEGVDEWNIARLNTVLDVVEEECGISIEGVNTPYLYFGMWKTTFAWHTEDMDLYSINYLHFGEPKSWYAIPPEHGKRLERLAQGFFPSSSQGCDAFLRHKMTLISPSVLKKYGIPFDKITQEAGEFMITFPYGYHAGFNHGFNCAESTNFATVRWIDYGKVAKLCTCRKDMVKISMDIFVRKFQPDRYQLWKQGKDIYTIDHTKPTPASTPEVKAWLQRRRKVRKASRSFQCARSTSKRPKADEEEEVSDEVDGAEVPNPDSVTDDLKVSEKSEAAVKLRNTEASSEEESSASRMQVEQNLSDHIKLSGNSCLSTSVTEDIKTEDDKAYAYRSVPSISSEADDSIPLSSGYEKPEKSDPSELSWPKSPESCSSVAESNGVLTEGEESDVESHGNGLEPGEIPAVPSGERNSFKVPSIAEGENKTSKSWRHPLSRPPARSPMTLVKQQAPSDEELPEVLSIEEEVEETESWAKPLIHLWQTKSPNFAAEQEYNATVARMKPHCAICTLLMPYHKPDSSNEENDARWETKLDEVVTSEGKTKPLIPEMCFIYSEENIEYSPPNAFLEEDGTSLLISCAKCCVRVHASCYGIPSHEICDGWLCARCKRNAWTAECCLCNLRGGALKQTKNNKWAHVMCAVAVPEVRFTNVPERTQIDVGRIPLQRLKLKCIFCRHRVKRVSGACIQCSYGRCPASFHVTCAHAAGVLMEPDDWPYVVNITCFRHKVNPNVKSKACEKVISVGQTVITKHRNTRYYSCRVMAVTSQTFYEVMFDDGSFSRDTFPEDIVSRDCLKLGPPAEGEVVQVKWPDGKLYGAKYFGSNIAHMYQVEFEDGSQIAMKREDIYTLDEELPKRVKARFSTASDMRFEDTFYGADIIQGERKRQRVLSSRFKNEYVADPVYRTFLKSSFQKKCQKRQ
Method in brief: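 Full-length KDM4C (0.2 nM final) was preincubated 15 min at RT with compound in HEPES pH 7.4 with Tween-20, BSA and TCEP. The reaction ran 30 min at RT after adding biotinylated peptide (3 nM final) in buffer with Fe(II), α-ketoglutarate and ascorbate. EDTA-containing AlphaScreen beads stopped it; IC50 was curve-fitted.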

[1] = AlphaScreen, full length KDM5B 0.5 nM, biotinylated H3K4Me3 peptide 3 nM, 25 minutes at room temperature, read-out: KDM5B (IC50)

T1 sequence (Q9UGL1 whole entry): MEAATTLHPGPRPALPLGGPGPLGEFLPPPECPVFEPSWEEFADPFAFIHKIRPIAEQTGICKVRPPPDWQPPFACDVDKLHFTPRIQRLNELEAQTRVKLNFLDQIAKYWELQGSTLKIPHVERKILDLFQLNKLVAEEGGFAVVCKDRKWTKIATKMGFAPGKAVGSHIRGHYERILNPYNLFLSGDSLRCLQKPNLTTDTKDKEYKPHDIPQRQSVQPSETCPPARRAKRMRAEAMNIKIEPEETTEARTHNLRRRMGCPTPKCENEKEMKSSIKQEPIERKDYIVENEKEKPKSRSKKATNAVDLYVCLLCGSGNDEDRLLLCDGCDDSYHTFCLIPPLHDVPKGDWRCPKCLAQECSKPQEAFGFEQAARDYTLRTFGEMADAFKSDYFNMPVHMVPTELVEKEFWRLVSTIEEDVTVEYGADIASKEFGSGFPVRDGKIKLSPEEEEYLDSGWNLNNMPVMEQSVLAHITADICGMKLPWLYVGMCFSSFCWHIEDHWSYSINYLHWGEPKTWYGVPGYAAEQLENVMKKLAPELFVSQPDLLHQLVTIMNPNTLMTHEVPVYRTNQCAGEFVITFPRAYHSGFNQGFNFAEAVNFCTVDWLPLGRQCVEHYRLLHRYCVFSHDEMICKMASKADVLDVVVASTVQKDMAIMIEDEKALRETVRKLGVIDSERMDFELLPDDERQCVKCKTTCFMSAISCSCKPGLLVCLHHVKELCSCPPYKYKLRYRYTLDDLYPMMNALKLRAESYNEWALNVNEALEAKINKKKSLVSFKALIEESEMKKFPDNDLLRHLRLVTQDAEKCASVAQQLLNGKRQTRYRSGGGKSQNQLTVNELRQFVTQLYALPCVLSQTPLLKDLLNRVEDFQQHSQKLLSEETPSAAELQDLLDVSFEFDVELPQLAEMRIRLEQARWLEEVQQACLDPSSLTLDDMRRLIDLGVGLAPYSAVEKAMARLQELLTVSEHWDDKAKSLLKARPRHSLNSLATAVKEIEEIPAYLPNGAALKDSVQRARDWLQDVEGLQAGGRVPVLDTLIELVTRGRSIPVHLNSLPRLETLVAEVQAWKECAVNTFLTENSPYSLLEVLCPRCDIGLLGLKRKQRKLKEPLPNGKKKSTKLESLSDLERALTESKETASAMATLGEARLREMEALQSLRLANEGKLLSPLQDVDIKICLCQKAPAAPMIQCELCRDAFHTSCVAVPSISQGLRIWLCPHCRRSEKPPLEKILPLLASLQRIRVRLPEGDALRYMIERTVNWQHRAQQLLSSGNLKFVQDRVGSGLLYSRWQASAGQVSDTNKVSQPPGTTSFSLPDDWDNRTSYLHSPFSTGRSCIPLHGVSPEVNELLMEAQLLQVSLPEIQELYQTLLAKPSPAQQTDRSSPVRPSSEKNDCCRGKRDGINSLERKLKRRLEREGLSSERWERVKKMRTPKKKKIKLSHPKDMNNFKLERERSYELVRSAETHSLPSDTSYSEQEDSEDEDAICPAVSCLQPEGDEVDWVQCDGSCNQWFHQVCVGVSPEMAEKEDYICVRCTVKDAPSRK

Structure (SMILES) | IC50 (KDM5B; [1]) [nM] | IC50 (KDM4C) [nM] | IC50 (KDM5B) [nM]
CC(C)c1c(O)nc(-n2ccnc2)nc1OCC1(N)CC1 [Example 128, 6-[(1-Aminocyclopropyl)-methoxy]-2-(1H-imidazol-1-yl)-5-(propan-2-yl)pyrimidin-4-ol] | 19 | 1400 | –
CC(C)c1c(O)nc(-n2ccnc2)nc1OCCc1ccncc1 [Example 129, 2-(1H-Imidazol-1-yl)-5-(propan-2-yl)-6-[2-(pyridin-4-yl)ethoxy]pyrimidin-4-ol] | – | 1120 | 27
CC(C)c1c(O)nc(-n2ccnc2)nc1OCCN1CCCCC1 [Example 130, 2-(1H-Imidazol-1-yl)-6-[2-(piperidin-1-yl)ethoxy]-5-(propan-2-yl)pyrimidin-4-ol] | – | 3670 | 27
CC(C)c1c(O)nc(-n2ccnc2)nc1OCCC1CCOCC1 [Example 131, 2-(1H-Imidazol-1-yl)-6-[2-(oxan-4-yl)ethoxy]-5-(propan-2-yl)pyrimidin-4-ol] | – | 2090 | 27
CC(C)c1c(O)nc(-n2ccnc2)nc1OCCN1CCCC1=O [Example 132, 1-(2-{[6-Hydroxy-2-(1H-imidazol-1-yl)-5-(propan-2-yl)pyrimidin-4-yl]oxy}ethyl)-pyrrolidin-2-one] | – | 2410 | 30
COC(=O)COc1nc(-n2ccnc2)nc(O)c1C(C)C [Example 133, Methyl 2-{[6-hydroxy-2-(1H-imidazol-1-yl)-5-(propan-2-yl)pyrimidin-4-yl]oxy}acetate] | – | 1330 | 30
CC(C)c1c(O)nc(-n2ccnc2)nc1OCc1ccccc1 [Example 134, 6-(Benzyloxy)-2-(1H-imidazol-1-yl)-5-(propan-2-yl)pyrimidin-4-ol] | – | 1450 | 31
CC(C)c1c(O)nc(-n2ccnc2)nc1OC1CCOC1 (stereo not shown) [Example 135, 2-(1H-Imidazol-1-yl)-6-(oxolan-3-yloxy)-5-(propan-2-yl)pyrimidin-4-ol] | – | 2050 | 47
CC(C)c1c(O)nc(-n2ccnc2)nc1OCc1ccncn1 [Example 136, 2-(1H-Imidazol-1-yl)-5-(propan-2-yl)-6-(pyrimidin-4-ylmethoxy)pyrimidin-4-ol] | – | 2410 | 55
CC(C)c1c(O)nc(-n2ccnc2)nc1OCCN(C)C [Example 137, 6-[2-(Dimethylamino)-ethoxy]-2-(1H-imidazol-1-yl)-5-(propan-2-yl)pyrimidin-4-ol] | 58 | 975 | –
CC(CN1CCOCC1)Oc1nc(-n2ccnc2)nc(O)c1C(C)C (stereo not shown) [Example 138, 2-(1H-Imidazol-1-yl)-6-{[1-(morpholin-4-yl)propan-2-yl]oxy}-5-(propan-2-yl)-pyrimidin-4-ol] | – | 5560 | 65
CC(C)c1c(O)nc(-n2ccnc2)nc1OCC1CCOCC1 [Example 139, 2-(1H-Imidazol-1-yl)-6-(oxan-4-ylmethoxy)-5-(propan-2-yl)pyrimidin-4-ol] | 75 | 3680 | –
CCCCCCOc1nc(-n2ccnc2)nc(O)c1C(C)C [Example 140, 6-(Hexyloxy)-2-(1H-imidazol-1-yl)-5-(propan-2-yl)pyrimidin-4-ol] | 341 | 50000 | –
CC(C)c1c(O)nc(-n2ccnc2)nc1OCC(=O)NCc1cccnc1 [Example 141, 2-{[6-Hydroxy-2-(1H-imidazol-1-yl)-5-(propan-2-yl)pyrimidin-4-yl]oxy}-N-(pyridin-3-ylmethyl)-acetamide] | 33 | 4400 | –
CC(C)c1c(O)nc(-n2ccnc2)nc1OCC(=O)N1CCOCC1 [Example 142, 2-{[6-Hydroxy-2-(1H-imidazol-1-yl)-5-(propan-2-yl)pyrimidin-4-yl]oxy}-1-(morpholin-4-yl)ethan-1-one] | – | 2130 | 35
CC(C)c1c(O)nc(-c2cncs2)nc1OCc1cncnc1 [Example 143, 5-(Propan-2-yl)-6-(pyrimidin-5-ylmethoxy)-2-(1,3-thiazol-5-yl)pyrimidin-4-ol] | – | 2960 | 138
CC(C)c1c(O)nc(-c2cncs2)nc1OCc1ccncc1 [Example 144, 5-(Propan-2-yl)-6-(pyridin-4-ylmethoxy)-2-(1,3-thiazol-5-yl)pyrimidin-4-ol] | 140 | 2920 | –
CC(C)c1c(O)nc(-c2cncs2)nc1OCc1ccccn1 [Example 145, 5-(Propan-2-yl)-6-(pyridin-2-ylmethoxy)-2-(1,3-thiazol-5-yl)pyrimidin-4-ol] | – | 21000 | 163
CC(C)c1c(O)nc(-c2cncs2)nc1OCC(C)(C)CO [Example 147, 6-(3-Hydroxy-2,2-dimethylpropoxy)-5-(propan-2-yl)-2-(1,3-thiazol-5-yl)-pyrimidin-4-ol] | – | 12400 | 1470
Cc1nc(-n2ccnc2C)nc(O)c1C(C)C [Example 148, 6-Methyl-2-(2-methyl-1H-imidazol-1-yl)-5-(propan-2-yl)pyrimidin-4-ol] | – | 9460 | 480
Cc1nc(-c2ccncc2)nc(O)c1C(C)C [Example 149, 6-Methyl-5-(propan-2-yl)-2-(pyridin-4-yl)pyrimidin-4-ol] | – | 50000 | 3320
Cc1nc(-c2scnc2C(=O)NCc2ccccc2)nc(O)c1C(C)C [Example 150, N-benzyl-5-[6-methyl-4-oxo-5-(propan-2-yl)-1,4-dihydropyrimidin-2-yl]-1,3-thiazole-4-carboxamide] | – | 16900 | 1120
Cc1cn(-c2nc(O)c(C(C)C)c(OCc3cccnc3)n2)cn1 [Example 151, 2-(4-Methyl-1H-imidazol-1-yl)-5-(propan-2-yl)-6-(pyridin-3-ylmethoxy)-pyrimidin-4-ol] | 583 | 8780 | –
CC(C)c1c(O)nc(-c2cncs2)nc1-c1cnn(C(C)C)c1 [Example 152, 5-(Propan-2-yl)-6-[1-(propan-2-yl)-1H-pyrazol-4-yl]-2-(1,3-thiazol-5-yl)pyrimidin-4-ol] | – | 7240 | 151
CC(C)c1c(O)nc(-c2cncs2)nc1-c1cnn(C2CCNCC2)c1 [Example 154, 6-[1-(Piperidin-4-yl)-1H-pyrazol-4-yl]-5-(propan-2-yl)-2-(1,3-thiazol-5-yl)pyrimidin-4-ol] | – | 13900 | 2130
Cc1nc(-c2cncs2)nc(O)c1C(C)C [Example 155, 6-Methyl-5-(propan-2-yl)-2-(1,3-thiazol-5-yl)-pyrimidin-4-ol] | – | 1650 | 65
CCc1c(C)nc(-c2cncs2)nc1O [Example 156, 5-Ethyl-6-methyl-2-(1,3-thiazol-5-yl)-pyrimidin-4-ol] | – | 8060 | 660
CC(C)c1cnc(-c2cncs2)nc1O [Example 157, 5-(Propan-2-yl)-2-(1,3-thiazol-5-yl)-pyrimidin-4-ol] | 805 | 5820 | –
Cc1nc(-c2nccs2)nc(O)c1C(C)C [Example 158, 6-Methyl-5-(propan-2-yl)-2-(1,3-thiazol-2-yl)-pyrimidin-4-ol] | 2410 | 30000 | –
